Results from patent US20120196828A1, “SENSITIZATION OF CANCER CELLS TO TREATMENT” (priority 2011, published 2012).
Several values for one entry are separate records, joined by “and”; a condition that tells them apart may be missing. Identical values can stand only once.

Experiments:
[1] = target: Receptor for Advanced Glycation End products (RAGE) / HMGB1 (Homo sapiens, UniProt Q15109); conditions: Rao et al. 2010; WO 2009/015183; cited from earlier work
[2] = Body weight, deaths and clinical observations in the BxPC-3 xenograft study
Experimental: (§1) All experiments were conducted on female athymic nude mice (Hsd:Athymic Nude-Foxn1nu) supplied by Harlan (Indianapolis, Ind.). Mice were received at four weeks of age, 12-15 grams in weight, and were acclimated for seven days prior to handling. The mice were housed in microisolator cages (Lab Products, Seaford, Del.) and maintained under specific pathogen-free conditions. All procedures were carried out under appropriate institutional guidelines for animal care.
(§2) Seven days following inoculation, tumors were measured using calipers and tumor weight was calculated using the animal study management software, Study Director V.1.7.54 k (Study Log). See Britten C D, et al. Enhanced antitumor activity of 6-hydroxymethylacylfulvene in combination with irinotecan and 5-fluorouracil in the HT29 human colon tumor xenograft model. Cancer Res 59:1049-1053, 1999. […] Body weights were recorded when the mice were randomized and were taken twice weekly thereafter in conjunction with tumor measurements, on each of Days 1, 4, 8, 11, 15, 18, 22, 26, 30, 33, and 36.
(§3) The study was terminated when the vehicle control reached an endpoint of 1500 mg, on Day 36.

anti-thrombin III = anti-thrombin III (Homo sapiens, UniProt P01008); conditions: cited from earlier work
[3] = tested on: BxPC-3 Human Pancreas Tumor Xenograft; test: BxPC-3 human pancreas tumor xenograft model: tumor weight and tumor growth inhibition; format: in vivo, mouse
Experimental: Compounds tested in the experiment were as follows. […] A concentration of 4.8 mg/ml was formulated to deliver a 24 mg/kg dose at a 5 ml/kg dose volume when administered subcutaneously. […] Nab-paclitaxel was manufactured by Abraxis BioScience LLC (Bridgewater, N.J.) and diluted in a 0.9% NaCl solution to a concentration of 1.5 mg/ml to deliver 15 mg/kg, in a 10 ml/kg dose volume. All standard agent preparations were made fresh prior to their administration.
BxPC-3 cells were obtained and prepared as follows. The BxPC-3 pancreas tumor cell line was received from American Type Culture Collection (ATCC, Manassas, Va.). Cultures were maintained in RPMI 1640 medium (Hyclone, Logan, Utah) supplemented with 5% fetal bovine serum. The cells were housed in a 5% CO2 atmosphere. The cultures were expanded in tissue culture flasks at a 1:3 split ratio until a sufficient amount of cells were harvested.
as §1
BxPC-3 Human Pancreas Tumor Xenograft Model: Female athymic nude mice per treatment condition were inoculated subcutaneously in the right flank with 0.1 ml of a 50% RPMI 1640/50% Matrigel™ (BD Biosciences, Bedford, Mass.) mixture containing a suspension of BxPC-3 tumor cells (approximately 5×10^6 cells/mouse).
as §2, §3
Mean tumor growth inhibition (TGI) was calculated utilizing Formula A below (deaths were not included in the TGI calculations).
All statistical analyses in the xenograft study were performed with GraphPad Prism® v4 software.

[4] = tested on: metastatic gastric cancer; conditions: patients with metastatic gastric cancer; ODSH with mDCF
Experimental: Subjects included in the trial are: patients diagnosed with metastatic gastric, including cancer at the gastroesophageal junction. […] Subjects in each arm of the trial are evaluated for time to tumor progression, weight loss, pain control, six-month survival rates, and overall survival.

[5] = tested on: metastatic pancreatic cancer; conditions: patients with metastatic pancreatic cancer; ODSH 4 mg/kg bolus then 0.375 mg/kg/hr infusion
Experimental: Subjects included in the trial are: patients diagnosed with metastatic pancreatic cancer. […] See also, Burris, H. A., et al., 1997, J. Clin. Oncol. 15(6):2403-13. […] J. Clin. Oncol. 30(1):15-20. Subjects in each arm of the trial are evaluated for time to tumor progression, weight loss, pain control, six-month survival rates, and overall survival.
Subjects included in the trial are: patients diagnosed with metastatic pancreatic cancer.
Next, 50 subjects are then randomly assigned to one of two arms: either a control or a treatment group.

[6] = ANOVA with Tukey's Multiple Comparison Test

Chain of anti-thrombin III (P01008 33-464, species assumed): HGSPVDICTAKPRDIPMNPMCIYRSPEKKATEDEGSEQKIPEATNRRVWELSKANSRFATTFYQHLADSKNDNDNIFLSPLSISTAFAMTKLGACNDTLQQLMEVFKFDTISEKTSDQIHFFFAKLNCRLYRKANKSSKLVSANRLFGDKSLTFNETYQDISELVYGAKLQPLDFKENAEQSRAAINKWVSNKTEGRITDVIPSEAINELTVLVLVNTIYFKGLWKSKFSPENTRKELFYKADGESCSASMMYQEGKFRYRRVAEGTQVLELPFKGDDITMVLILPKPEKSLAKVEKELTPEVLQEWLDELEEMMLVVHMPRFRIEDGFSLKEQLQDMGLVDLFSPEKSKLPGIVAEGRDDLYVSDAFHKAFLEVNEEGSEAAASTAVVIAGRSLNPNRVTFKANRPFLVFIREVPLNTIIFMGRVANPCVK
Chain of Receptor for Advanced Glycation End products (RAGE) / HMGB1 (Q15109 23-344 limits assumed, species assumed): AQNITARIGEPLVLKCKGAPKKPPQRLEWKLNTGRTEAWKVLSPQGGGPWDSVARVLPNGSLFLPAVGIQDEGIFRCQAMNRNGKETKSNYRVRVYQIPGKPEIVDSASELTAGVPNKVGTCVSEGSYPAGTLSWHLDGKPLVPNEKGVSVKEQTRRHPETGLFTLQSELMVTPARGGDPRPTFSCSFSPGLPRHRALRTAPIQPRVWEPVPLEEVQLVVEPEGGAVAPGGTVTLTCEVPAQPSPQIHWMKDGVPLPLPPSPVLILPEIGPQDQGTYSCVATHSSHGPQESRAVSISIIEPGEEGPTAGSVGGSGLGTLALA

What does the source list for 2-O, 3-O desulfated heparin [ODSH]?
Binding of RAGE by HMGB1 and other RAGE ligands [1]: inhibit binding; Day 1 Average Weight ([2]; Day 1): 21.54 g; Day 4 Average Weight ([2]; Day 4): 21.18 g; Day 4 % Weight Loss or Gain ([2]; Day 4, vs starting weight): −1.67%; Day 8 Average Weight ([2]; Day 8): 21.18 g; Day 8 % Weight Loss or Gain ([2]; Day 8, vs starting weight): −1.67%; Day 11 Average Weight ([2]; Day 11): 20.95 g; Day 11 % Weight Loss or Gain ([2]; Day 11, vs starting weight): −2.74%; Day 15 Average Weight ([2]; Day 15): 21.08 g; Day 15 % Weight Loss or Gain ([2]; Day 15, vs starting weight): −2.14%; Day 18 Average Weight ([2]; Day 18): 21.04 g; Day 18 % Weight Loss or Gain ([2]; Day 18, vs starting weight): −2.32%; Day 22 Average Weight ([2]; Day 22): 22.53 g; Day 22 Average Weight ([2]; Day 22 (Table 12)): 21.56 g; Day 22 % Weight Loss or Gain ([2]; Day 22 (Table 12), vs starting weight): 0.09%; Day 22 % Weight Loss or Gain ([2]; Day 22, vs starting weight): 4.60%; Day 26 Average Weight ([2]; Day 26 (Table 12)): 22.14 g; Day 26 % Weight Loss or Gain ([2]; Day 26 (Table 12), vs starting weight): 2.79%; Day 30 % Weight Loss or Gain ([2]; Day 30, vs starting weight, groups 3 and 5 switched regimen from Day 26): 4.92%; Day 30 Average Weight ([2]; Day 30, groups 3 and 5 switched to gemcitabine + nab-paclitaxel regimen from Day 26): 22.60 g; Day 26 Average Weight ([2]; Table 13 Day 26): 22.46 g; Day 26 % Weight Loss or Gain ([2]; Table 13 Day 26, vs starting weight): 4.27%; Tolerability / toxicity of the regimen ([2]; athymic nude mice, dosing per Table 1): well-tolerated; Starting Weight ([2]; baseline body weight, female athymic nude mice, BxPC-3 xenograft study): 21.54 g; Maximum weight loss ([2]; body weight of mice): 2.7%; Day bruising of the abdomens was first observed ([2]; mouse, in vivo): 15 days; Day bruising of the tails was first observed ([2]; mouse, in vivo): 8 days; Day by which the mice recovered their weight ([2]; mouse, in vivo): ≤ 22 days; Day on which maximum weight loss was reached ([2]; mouse, in vivo): 11 days; Day swelling of the tail was first observed ([2]; mouse, in vivo): 11 days; Mice demonstrating bruising on the tails or abdomen (site of injection) ([2]; of ten mice): All ten; Mice demonstrating swelling of the tail ([2]; of ten mice): One of the ten; Deaths ([2]; total deaths on or before Day 26, N = 10 per group): 0; Deaths ([2]; total deaths on or before Day 36, n = 10 per group): 0; Kd (anti-thrombin III): ~339 µM; Kd for anti-thrombin III (anti-thrombin III): ~4000 µg/mL; Difference in tumor weight on Day 26 compared to vehicle control [3, 6]: No significant difference; Difference in tumor weight on Day 36 compared to vehicle control [3, 6]: No significant difference; Mean tumor weight, Day 1 ([3]; Day 1 (randomization), group mean, dosing per Table 1): 122.4 mg; Median tumor weight, Day 1 ([3]; Day 1 (randomization), group median, dosing per Table 1): 22.9 mg; Tumor weight, individual mouse, Day 1 ([3]; Day 1 (randomization), individual mouse, dosing per Table 1 (ODSH 24, oxaliplatin 10, gemcitabine 80, nab-paclitaxel 15 mg/kg)): 140 mg and 116 mg and 172 mg and 94 mg and 131 mg and 106 mg and 125 mg and 143 mg and 129 mg; Mean tumor weight, Day 4 ([3]; Day 4, group mean, dosing per Table 1): 134.0 mg; Median tumor weight, Day 4 ([3]; Day 4, group median, dosing per Table 1): 28.6 mg; Tumor weight, individual mouse, Day 4 ([3]; Day 4, individual mouse, dosing per Table 1): 162 mg and 98 mg and 110 mg and 141 mg and 97 mg and 181 mg and 135 mg and 130 mg and 144 mg and 133 mg; Mean tumor weight, Day 8 ([3]; Day 8, group mean, dosing per Table 1): 146.0 mg; Median tumor weight, Day 8 ([3]; Day 8, group median, dosing per Table 1): 40.4 mg; Tumor weight, individual mouse, Day 8 ([3]; Day 8, individual mouse, dosing per Table 1): 218 mg and 118 mg and 144 mg and 183 mg and 125 mg and 222 mg and 126 mg and 155 mg and 157 mg and 148 mg; Mean tumor weight, Day 11 ([3]; Day 11, group mean, dosing per Table 1): 187.6 mg; Median tumor weight, Day 11 ([3]; Day 11, group median, dosing per Table 1): 162.1 mg; Tumor weight, individual mouse, Day 11 ([3]; Day 11, individual mouse, dosing per Table 1): 149 mg and 288 mg and 142 mg and 175 mg and 243 mg and 146 mg and 252 mg and 137 mg and 140 mg and 203 mg; Mean tumor weight, Day 15 ([3]; Day 15, group mean, dosing per Table 1): 263.0 mg; Median tumor weight, Day 15 ([3]; Day 15, group median, dosing per Table 1): 250.0 mg; Tumor weight, individual mouse, Day 15 ([3]; Day 15, individual mouse, dosing per Table 1): 206 mg and 340 mg and 224 mg and 263 mg and 348 mg and 237 mg and 321 mg and 208 mg and 218 mg and 264 mg; Mean tumor weight, Day 18 ([3]; Day 18, group mean, dosing per Table 1): 338.5 mg; Median tumor weight, Day 18 ([3]; Day 18, group median, dosing per Table 1): 304.7 mg; Tumor weight, individual mouse, Day 18 ([3]; Day 18, individual mouse, dosing per Table 1): 278 mg (2×) and 489 mg and 291 mg and 288 mg and 419 mg and 256 mg and 415 mg and 318 mg and 352 mg; Mean tumor weight, Day 22 ([3]; Day 22, group mean, dosing per Table 1): 453.8 mg; Median tumor weight, Day 22 ([3]; Day 22, group median, dosing per Table 1): 425.4 mg; Tumor weight, individual mouse, Day 22 ([3]; Day 22, individual mouse, dosing per Table 1): 358 mg and 622 mg and 360 mg and 400 mg and 556 mg and 402 mg and 551 mg and 449 mg and 326 mg and 515 mg; Mean tumor weight, Day 26 ([3]; Day 26, group mean, dosing per Table 1): 616.2 mg; Median tumor weight, Day 26 ([3]; Day 26, group median, dosing per Table 1): 551.3 mg; Tumor weight, individual mouse, Day 26 ([3]; Day 26, individual mouse, dosing per Table 1): 509 mg and 894 mg and 478 mg and 529 mg and 770 mg and 573 mg and 724 mg and 524 mg and 394 mg and 766 mg; Day 26 Tumor Weight ([3]; Day 26, mean ± Std Err, treatment administered until Day 26): 616.2 ± 50.9 mg; Day 26 % TGI ([3]; Day 26 vs Day 1, relative to vehicle control (Group 1), deaths not included): 11.5% and 11.5 (10/10) %; Mean tumor weight, Day 30 ([3]; Day 30, group mean of surviving mice, dosing per Table 1): 882.3 mg; Median tumor weight, Day 30 ([3]; Day 30, group median, dosing per Table 1): 856.4 mg; Tumor weight, individual mouse, Day 30 ([3]; Day 30, individual mouse, dosing per Table 1): 697 mg and 1,083 mg and 756 mg and 893 mg and 1,201 mg and 820 mg and 945 mg and 764 mg and 555 mg and 1,109 mg; Mean tumor weight, Day 33 ([3]; Day 33, group mean of surviving mice, dosing per Table 1): 1,038.6 mg; Median tumor weight, Day 33 ([3]; Day 33, group median, dosing per Table 1): 979.8 mg; Tumor weight, individual mouse, Day 33 ([3]; Day 33, individual mouse, dosing per Table 1): 908 mg and 1,218 mg and 999 mg and 961 mg (2×) and 1,309 mg and 1,087 mg and 871 mg and 733 mg and 1,340 mg; Day 36 Tumor Weight ([3]; Day 36, treatment administered until Day 35): 1270.1 ± 95.5 mg; Median tumor weight, Day 36 ([3]; Day 36, group median, dosing per Table 1): 1,151.5 mg; Tumor weight, individual mouse, Day 36 ([3]; Day 36, individual mouse, dosing per Table 1): 1,072 mg and 1,450 mg and 1,153 mg and 1,150 mg (2×) and 1,654 mg and 1,376 mg and 1,037 mg and 836 mg and 1,823 mg; Day 36 % TGI ([3]; Day 36 vs Day 1, relative to vehicle control (Group 1), deaths not included): 18.2%; Overall antitumor effect (summary statement) ([3]; xenograft model of human pancreatic cancer): inhibits tumor growth to a similar extent as treatment with gemcitabine; Therapeutic benefit of addition of ODSH to chemotherapy in gastric cancer [4]: therapeutic benefit; Therapeutic benefit of addition of ODSH to chemotherapy in pancreatic cancer [5]: therapeutic benefit
